# According to ChEMBL document CHEMBL1201862, “PubChem BioAssay data set” (2004):
#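 Results reflect a 48-hour exposure of cells in 96-well plates to compound at five concentrations. GI50 = concentration required for 50% inhibition of growth.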 The source made the active and inactive calls. Cut-off read from the data, not from the text of the source: active = GI50 up to about 1.1 µM and inactive = higher.
# Columns and labels:
# Experiment in all cases: NCI anticancer screen, dose series, 48 h
# SK-OV-3 = test system: SK-OV-3
# IGROV-1 = test system: IGROV-1
# ACHN = test system: ACHN
# NCI-H460 = test system: NCI-H460
# RXF 393 = test system: RXF 393
# SF-539 = test system: SF-539
# M14 = test system: M14
# HCC 2998 = test system: HCC 2998
# NCI-H23 = test system: NCI-H23
# HOP-62 = test system: HOP-62
# SW-620 = test system: SW-620
# DMS-273 = test system: DMS-273
# KM-20L2 = test system: KM-20L2
# LXFL 529 = test system: LXFL 529
# OVCAR-3 = test system: OVCAR-3
# HT-29 = test system: HT-29
# A498 = test system: A498
# DLD-1 = test system: DLD-1
# CAKI-1 = test system: CAKI-1
# HOP-18 = test system: HOP-18
# 786-0 = test system: 786-0
# SNB-19 = test system: SNB-19
# RXF 631 = test system: RXF 631
# SNB-78 = test system: SNB-78
# A549 = test system: A549
# SN12C = test system: SN12C
# OVCAR-4 = test system: OVCAR-4
# SNB-75 = test system: SNB-75
# Malme-3M = test system: Malme-3M
# U-251 = test system: U-251
# MOLT-4 = test system: MOLT-4
# EKVX = test system: EKVX
# SF-268 = test system: SF-268
# XF498 = test system: XF498
# M19-MEL = test system: M19-MEL
# COLO 205 = test system: COLO 205
# HOP-92 = test system: HOP-92
# DMS-114 = test system: DMS-114
# SK-MEL-28 = test system: SK-MEL-28
# SK-MEL-2 = test system: SK-MEL-2
# SR = test system: SR
# KM12 = test system: KM12
# SF-295 = test system: SF-295
# UACC-257 = test system: UACC-257
# UACC-62 = test system: UACC-62
# TK-10 = test system: TK-10
# LOX IMVI = test system: LOX IMVI
# CCRF-CEM = test system: CCRF-CEM
# NCI-H226 = test system: NCI-H226
# NCI-H522 = test system: NCI-H522
# SK-MEL-5 = test system: SK-MEL-5
# OVCAR-5 = test system: OVCAR-5
# OVCAR-8 = test system: OVCAR-8
# HL-60 = test system: HL-60
# UO-31 = test system: UO-31
# K562 = test system: K562
# HCT-116 = test system: HCT-116
# HCT-15 = test system: HCT-15
structure (smiles),measurement,setting,value
CCS(CC)(CC)CC1CCCC2=CCC(P(=O)(c3ccccc3)c3ccccc3)CC21 (centres undefined),GI50,SK-OV-3,12.7 µM (inactive)
same,GI50,IGROV-1,9.57 µM (inactive)
same,GI50,ACHN,9.02 µM (inactive)
same,GI50,NCI-H460,10.3 µM (inactive)
same,GI50,RXF 393,9.66 µM (inactive)
same,GI50,SF-539,13.3 µM (inactive)
same,GI50,M14,12.2 µM (inactive)
same,GI50,HCC 2998,9.25 µM (inactive)
same,GI50,NCI-H23,10.5 µM (inactive)
same,GI50,HOP-62,16.3 µM (inactive)
same,GI50,SW-620,13.9 µM (inactive)
same,GI50,DMS-273,9.08 µM (inactive)
same,GI50,KM-20L2,11.5 µM (inactive)
same,GI50,LXFL 529,9.64 µM (inactive)
same,GI50,OVCAR-3,13.7 µM (inactive)
same,GI50,HT-29,9.12 µM (inactive)
same,GI50,A498,13.6 µM (inactive)
same,GI50,DLD-1,11.2 µM (inactive)
same,GI50,CAKI-1,10 µM (inactive)
same,GI50,HOP-18,23.8 µM (inactive)
same,GI50,786-0,10.9 µM (inactive)
same,GI50,SNB-19,12.9 µM (inactive)
same,GI50,RXF 631,13.6 µM (inactive)
same,GI50,SNB-78,15.4 µM (inactive)
same,GI50,A549,4.89 µM (inactive)
same,GI50,SN12C,11.9 µM (inactive)
same,GI50,OVCAR-4,10.1 µM (inactive)
same,GI50,SNB-75,11 µM (inactive)
same,GI50,Malme-3M,18.4 µM (inactive)
same,GI50,U-251,10.2 µM (inactive)
same,GI50,MOLT-4,4.43 µM (inactive)
same,GI50,EKVX,14.3 µM (inactive)
same,GI50,SF-268,11.4 µM (inactive)
same,GI50,XF498,5.81 µM (inactive)
same,GI50,M19-MEL,17.9 µM (inactive)
same,GI50,COLO 205,17 µM (inactive)
same,GI50,HOP-92,2.5 µM (inactive)
same,GI50,DMS-114,8.81 µM (inactive)
same,GI50,SK-MEL-28,14.4 µM (inactive)
same,GI50,SK-MEL-2,14.2 µM (inactive)
same,GI50,SR,6.27 µM (inactive)
same,GI50,KM12,11.4 µM (inactive)
same,GI50,SF-295,3.81 µM (inactive)
same,GI50,UACC-257,> 10 µM (inactive)
same,GI50,UACC-62,3.01 µM (inactive)
same,GI50,TK-10,12.7 µM (inactive)
same,GI50,LOX IMVI,14.7 µM (inactive)
same,GI50,CCRF-CEM,6.78 µM (inactive)
same,GI50,NCI-H226,18.7 µM (inactive)
same,GI50,NCI-H522,11 µM (inactive)
same,GI50,SK-MEL-5,13.2 µM (inactive)
same,GI50,OVCAR-5,15.6 µM (inactive)
same,GI50,OVCAR-8,11.4 µM (inactive)
same,GI50,HL-60,3.31 µM (inactive)
same,GI50,UO-31,6.32 µM (inactive)
same,GI50,K562,4.09 µM (inactive)
same,GI50,HCT-116,7.36 µM (inactive)
same,GI50,HCT-15,8.26 µM
CC(=O)OCc1cc(OC(C)=O)cnc1COC(C)=O,GI50,SK-OV-3,> 100 µM (inactive)
same,GI50,IGROV-1,> 100 µM (inactive)
same,GI50,ACHN,> 100 µM (inactive)
same,GI50,NCI-H460,> 100 µM (inactive)
same,GI50,RXF 393,> 100 µM (inactive)
same,GI50,SF-539,> 100 µM (inactive)
same,GI50,M14,> 100 µM (inactive)
same,GI50,NCI-H23,> 100 µM (inactive)
same,GI50,HOP-62,> 100 µM (inactive)
same,GI50,SW-620,> 100 µM (inactive)
same,GI50,DMS-273,> 100 µM (inactive)
same,GI50,KM-20L2,> 100 µM (inactive)
same,GI50,LXFL 529,> 100 µM (inactive)
same,GI50,OVCAR-3,> 100 µM (inactive)
same,GI50,HT-29,> 100 µM (inactive)
same,GI50,A498,> 100 µM (inactive)
same,GI50,DLD-1,> 100 µM (inactive)
same,GI50,CAKI-1,> 100 µM (inactive)
same,GI50,HOP-18,> 100 µM (inactive)
same,GI50,786-0,> 100 µM (inactive)
same,GI50,SNB-19,> 100 µM (inactive)
same,GI50,RXF 631,> 100 µM (inactive)
same,GI50,A549,> 100 µM (inactive)
same,GI50,SN12C,> 100 µM (inactive)
same,GI50,OVCAR-4,> 100 µM (inactive)
same,GI50,SNB-75,> 100 µM (inactive)
same,GI50,Malme-3M,> 100 µM (inactive)
same,GI50,U-251,> 100 µM (inactive)
same,GI50,MOLT-4,> 100 µM (inactive)
same,GI50,EKVX,> 100 µM (inactive)
same,GI50,SF-268,> 100 µM (inactive)
same,GI50,XF498,> 100 µM (inactive)
same,GI50,M19-MEL,> 100 µM (inactive)
same,GI50,COLO 205,> 100 µM (inactive)
same,GI50,HOP-92,> 100 µM (inactive)
same,GI50,DMS-114,> 100 µM (inactive)
same,GI50,SK-MEL-28,> 100 µM (inactive)
same,GI50,SK-MEL-2,> 100 µM (inactive)
same,GI50,SR,> 100 µM (inactive)
same,GI50,KM12,> 100 µM (inactive)
same,GI50,SF-295,> 100 µM (inactive)
same,GI50,UACC-257,> 100 µM (inactive)
same,GI50,UACC-62,> 100 µM (inactive)
same,GI50,TK-10,> 100 µM (inactive)
same,GI50,LOX IMVI,> 100 µM (inactive)
same,GI50,CCRF-CEM,> 100 µM (inactive)
same,GI50,NCI-H226,> 100 µM (inactive)
same,GI50,NCI-H522,> 100 µM (inactive)
same,GI50,SK-MEL-5,> 100 µM (inactive)
same,GI50,OVCAR-5,> 100 µM (inactive)
same,GI50,OVCAR-8,> 100 µM (inactive)
same,GI50,HL-60,> 100 µM (inactive)
same,GI50,UO-31,> 100 µM (inactive)
same,GI50,K562,> 100 µM (inactive)
same,GI50,HCT-116,> 100 µM (inactive)
same,GI50,HCT-15,> 100 µM
